Results taken from patent publication US20250018047A1, “METHODS AND COMPOSITIONS FOR TARGETED PROTEIN DEGRADATION” (Ranok Therapeutics (Hangzhou) Co. Ltd., priority 2021, published 2025).
Structures can show the parent of a compound that is named as a salt.

Tests used:
[1] = system: AsPC-1 human pancreatic adenocarcinoma; assay: CellTiter-Glo cancer cell line proliferation assay, AsPC-1; type: cell-based; conditions: Homo sapiens, ASPC1, 24 hr
Method in brief: (§1)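 Cells plated at 4,000/well, grown 24 h at 37 °C/5% CO2, then exposed to compound concentration series (0.5% DMSO final) for 24 h. Viability read by CellTiter-Glo luminescence; IC50 values calculated.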

[2] = system: A-427 human lung carcinoma; assay: CellTiter-Glo cancer cell line proliferation assay, A-427; type: cell-based; conditions: Homo sapiens, A-427, 24 hr, read-out: A427 at 24 hrs, IC50
Method in brief: as §1

[3] = molecular target: T1, KRAS(G12D)/SOS1 (Homo sapiens, UniProt P01116, G12D); assay: KRAS(G12D)/SOS1 homogeneous time-resolved fluorescence (HTRF) assay; type: binding; conditions: absence of GTP, 4° C. for 3 hr
T1 construct: purchased Cisbio 63ADK000CB16PEG
Protocol: The test compound was mixed and incubated with reaction components, incubated in a sealed plate at 4° C. for 3 hr and fluorescence was measured using a PerkinElmer Envision plate reader.

[4] = molecular target: BA/F3-KRAS(G12D) murine pro-B cell line stably expressing KRAS(G12D) (Homo sapiens, UniProt P01116, G12D, cells depend on it); assay: CellTiter-Glo cancer cell line proliferation assay, BA/F3-KRAS(G12D); type: cell-based; conditions: 24 hr, read-out: BAF3 at 24 hrs, IC50
Protocol: The following cancer cell lines were employed: AsPC-1 human pancreatic adenocarcinoma (ATCC, #CRL-1682); A-427 human lung carcinoma (ATCC, #HTB-53); BA/F3-KRAS(G12D) murine pro-B cell line stably expressing KRAS(G12D) (Precedo, Hefei, China). Cell lines were cultured according to ATCC and recommendations. BA/F3-KRAS(G12D) cells were cultured in RPMI 1640 media with 10% fetal calf serum, 100 units/mL penicillin and […] streptomycin, and 1% glutamine.
CellTiter-Glo® Reagent Cancer Cell Line Proliferation Assays
Cells were plated in 96-well tissue culture plates at 4,000 cells/well and incubated at 37° C./5% CO2 for 24 hr in 100 μl of media. 3-fold serial dilutions of each test compound were prepared ranging from 20 μM to 1.02 nM. Cells were then treated with test compounds at various concentrations with a final concentration of 0.5% DMSO/well, and then incubated at 37° C./5% CO2 for 24 hr. 100 μl of CellTiter-Glo® Reagent (Promega Corporation, Madison, WI) was added to each well and processed according manufacturer's protocol. Results were analyzed and IC50-values were calculated in GraphPad 7 software.

T1 sequence (P01116 1-188 isoform P01116-2 G12D): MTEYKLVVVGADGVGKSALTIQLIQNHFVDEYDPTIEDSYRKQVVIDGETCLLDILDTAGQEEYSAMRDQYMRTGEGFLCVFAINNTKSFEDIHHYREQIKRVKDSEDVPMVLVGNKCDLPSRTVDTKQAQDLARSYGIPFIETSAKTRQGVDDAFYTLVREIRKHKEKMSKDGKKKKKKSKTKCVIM
BA/F3-KRAS(G12D) murine pro-B cell line stably expressing KRAS(G12D), sequence (P01116 whole entry G12D): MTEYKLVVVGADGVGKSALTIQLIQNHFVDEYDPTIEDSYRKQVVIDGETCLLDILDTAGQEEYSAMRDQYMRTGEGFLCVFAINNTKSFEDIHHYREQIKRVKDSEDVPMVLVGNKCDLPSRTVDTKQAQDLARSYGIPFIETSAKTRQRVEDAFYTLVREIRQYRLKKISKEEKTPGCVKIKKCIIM

SMILES | IC50 [1] | IC50 [2] | IC50 [3] | GI50 [4]
CN1C[C@@H](N2CCC(C(=O)NCCOCCOc3ccc4c(c3)C(=O)N(C3CCC(=O)NC3=O)C4=O)CC2)C[C@H]1COc1nc(N2CC3CCC(C2)N3)c2cnc(-c3cccc4ccccc34)c(F)c2n1 (stereo partly drawn) [Compound 21, 1-((3S,5S)-5-(((4-(3,8-diazabicyclo[3.2.1]octan-3-yl)-8-fluoro-7-(naphthalen-1-yl)pyrido[4,3-d]pyrimidin-2-yl)oxy)methyl)-1-methylpyrrolidin-3-yl)-N-(2-(2-((2-(2,6-dioxopiperidin-3-yl)-1,3-dioxoisoindolin-5-yl)oxy)ethoxy)ethyl)piperidine-4-carboxamide formate] | > 1 µM | > 1 µM | 0.1 to 1 µM | > 1 µM
CN1C[C@@H](N2CCC(C(=O)NCCOc3ccc4c(c3)C(=O)N(C3CCC(=O)NC3=O)C4=O)CC2)C[C@H]1COc1nc(N2CC3CCC(C2)N3)c2cnc(-c3cccc4ccccc34)c(F)c2n1 (stereo partly drawn) [Compound 22, 1-((3S,5S)-5-(((4-(3,8-diazabicyclo[3.2.1]octan-3-yl)-8-fluoro-7-(naphthalen-1-yl)pyrido[4,3-d]pyrimidin-2-yl)oxy)methyl)-1-methylpyrrolidin-3-yl)-N-(2-((2-(2,6-dioxopiperidin-3-yl)-1,3-dioxoisoindolin-5-yl)oxy)ethyl)piperidine-4-carboxamide formate] | > 1 µM | > 1 µM | > 1 µM | > 1 µM
Cc1ncsc1-c1ccc(CNC(=O)[C@@H]2C[C@@H](O)CN2C(=O)[C@@H](NC(=O)C2CCN([C@H]3C[C@@H](COc4nc(N5CC6CCC(C5)N6)c5cnc(-c6cccc7ccccc67)c(F)c5n4)N(C)C3)CC2)C(C)(C)C)cc1 [Compound 23, 1-((3S,5S)-5-(((4-(3,8-diazabicyclo[3.2.1]octan-3-yl)-8-fluoro-7-(naphthalen-1-yl)pyrido[4,3-d]pyrimidin-2-yl)oxy)methyl)-1-methylpyrrolidin-3-yl)-N—((S)-1-((2S,4R)-4-hydroxy-2-((4-(4-methylthiazol-5-yl)benzyl)carbamoyl)pyrrolidin-1-yl)-3,3-dimethyl-1-oxobutan-2-yl)piperidine-4-carboxamide formate] | > 1 µM | > 1 µM | > 1 µM | > 1 µM
Cc1ncsc1-c1ccc(CNC(=O)[C@@H]2C[C@@H](O)CN2C(=O)[C@@H](NC(=O)C2CCN([C@H]3C[C@@H](COc4nc(N5CC6CCC(C5)N6)c5cnc(-c6cccc7cccc(Cl)c67)c(F)c5n4)N(C)C3)CC2)C(C)(C)C)cc1 [Compound 24, 1-((3S,5S)-5-(((4-(3,8-diazabicyclo[3.2.1]octan-3-yl)-7-(8-chloronaphthalen-1-yl)-8-fluoropyrido[4,3-d]pyrimidin-2-yl)oxy)methyl)-1-methylpyrrolidin-3-yl)-N—((S)-1-((2S,4R)-4-hydroxy-2-((4-(4-methylthiazol-5-yl)benzyl)carbamoyl)pyrrolidin-1-yl)-3,3-dimethyl-1-oxobutan-2-yl)piperidine-4-carboxamide formate] | > 1 µM | > 1 µM | 0.1 to 1 µM | > 1 µM
CN1C[C@@H](N2CCC(C(=O)Nc3ccc4c(c3)C(=O)N(C3CCC(=O)NC3=O)C4=O)CC2)C[C@H]1COc1nc(N2CC3CCC(C2)N3)c2cnc(-c3cccc4ccccc34)c(F)c2n1 (stereo partly drawn) [Compound 25, 1-((3S,5S)-5-(((4-(3,8-diazabicyclo[3.2.1]octan-3-yl)-8-fluoro-7-(naphthalen-1-yl)pyrido[4,3-d]pyrimidin-2-yl)oxy)methyl)-1-methylpyrrolidin-3-yl)-N-(2-(2,6-dioxopiperidin-3-yl)-1,3-dioxoisoindolin-5-yl)piperidine-4-carboxamide formate] | > 1 µM | > 1 µM | < 0.1 µM | > 1 µM
Cc1ncsc1-c1ccc(CNC(=O)[C@@H]2C[C@@H](O)CN2C(=O)[C@@H](NC(=O)CCCNC(=O)C2CCN([C@H]3C[C@@H](COc4nc(N5CC6CCC(C5)N6)c5cnc(-c6cccc7cccc(Cl)c67)c(F)c5n4)N(C)C3)CC2)C(C)(C)C)cc1 [Compound 26, 1-((3S,5S)-5-(((4-(3,8-diazabicyclo[3.2.1]octan-3-yl)-7-(8-chloronaphthalen-1-yl)-8-fluoropyrido[4,3-d]pyrimidin-2-yl)oxy)methyl)-1-methylpyrrolidin-3-yl)-N-(4-(((S)-1-((2S,4R)-4-hydroxy-2-((4-(4-methylthiazol-5-yl)benzyl)carbamoyl)pyrrolidin-1-yl)-3,3-dimethyl-1-oxobutan-2-yl)amino)-4-oxobutyl)piperidine-4-carboxamide] | > 1 µM | > 1 µM | < 0.1 µM | > 1 µM
Cc1ncsc1-c1ccc(CNC(=O)[C@@H]2C[C@@H](O)CN2C(=O)[C@@H](NC(=O)CCNC(=O)C2CCN([C@H]3C[C@@H](COc4nc(N5CC6CCC(C5)N6)c5cnc(-c6cccc7cccc(Cl)c67)c(F)c5n4)N(C)C3)CC2)C(C)(C)C)cc1 [Compound 27, 1-((3S,5S)-5-(((4-(3,8-diazabicyclo[3.2.1]octan-3-yl)-7-(8-chloronaphthalen-1-yl)-8-fluoropyrido[4,3-d]pyrimidin-2-yl)oxy)methyl)-1-methylpyrrolidin-3-yl)-N-(3-(((S)-1-((2S,4R)-4-hydroxy-2-((4-(4-methylthiazol-5-yl)benzyl)carbamoyl)pyrrolidin-1-yl)-3,3-dimethyl-1-oxobutan-2-yl)amino)-3-oxopropyl)piperidine-4-carboxamide formate] | > 1 µM | > 1 µM | 0.1 to 1 µM | > 1 µM
C#Cc1cccc2cccc(-c3ncc4c(N5CC6CCC(C5)N6)nc(OCC5(CN6CCN(Cc7ccc8c(c7)C(=O)N(C7CCC(=O)NC7=O)C8=O)CC6)CC5)nc4c3F)c12 (centres unmarked) [Compound 28, 5-((4-((1-(((4-(3,8-diazabicyclo[3.2.1]octan-3-yl)-7-(8-ethynylnaphthalen-1-yl)-8-fluoropyrido[4,3-d]pyrimidin-2-yl)oxy)methyl)cyclopropyl)methyl)piperazin-1-yl)methyl)-2-(2,6-dioxopiperidin-3-yl)isoindoline-1,3-dione formate] | > 1 µM | > 1 µM | < 0.1 µM | > 1 µM
C#Cc1cccc2cccc(-c3ncc4c(N5CC6CCC(C5)N6)nc(OCC5(CN6CCN(CC7CCN(c8cccc9c8C(=O)N(C8CCC(=O)NC8=O)C9=O)CC7)CC6)CC5)nc4c3F)c12 (centres unmarked) [Compound 29, 4-(4-((4-((1-(((4-(3,8-diazabicyclo[3.2.1]octan-3-yl)-7-(8-ethynylnaphthalen-1-yl)-8-fluoropyrido[4,3-d]pyrimidin-2-yl)oxy)methyl)cyclopropyl)methyl)piperazin-1-yl)methyl)piperidin-1-yl)-2-(2,6-dioxopiperidin-3-yl)isoindoline-1,3-dione formate] | > 1 µM | > 1 µM | < 0.1 µM | 0.1 to 1 µM
C#Cc1cccc2cccc(-c3ncc4c(N5CC6CCC(C5)N6)nc(OCC5(CN6CCN(C(=O)C7CCN(c8ccc9c(c8)C(=O)N(C8CCC(=O)NC8=O)C9=O)CC7)CC6)CC5)nc4c3F)c12 (centres unmarked) [Compound 30, 5-(4-(4-((1-(((4-(3,8-diazabicyclo[3.2.1]octan-3-yl)-7-(8-ethynylnaphthalen-1-yl)-8-fluoropyrido[4,3-d]pyrimidin-2-yl)oxy)methyl)cyclopropyl)methyl)piperazine-1-carbonyl)piperidin-1-yl)-2-(2,6-dioxopiperidin-3-yl)isoindoline-1,3-dione formate] | > 1 µM | > 1 µM | < 0.1 µM | > 1 µM
C#Cc1cccc2cccc(-c3ncc4c(N5CC6CCC(C5)N6)nc(OCC5(CN6CCN(Cc7ccc8c(c7)CN(C7CCC(=O)NC7=O)C8=O)CC6)CC5)nc4c3F)c12 (centres unmarked) [Compound 31, 3-(5-((4-((1-(((4-(3,8-diazabicyclo[3.2.1]octan-3-yl)-7-(8-ethynylnaphthalen-1-yl)-8-fluoropyrido[4,3-d]pyrimidin-2-yl)oxy)methyl)cyclopropyl)methyl)piperazin-1-yl)methyl)-1-oxoisoindolin-2-yl)piperidine-2,6-dione formate] | > 1 µM | > 1 µM | < 0.1 µM | > 1 µM
